Experimental data published in patent US10533018B2, “Antimicrobial prochelators to target drug-resistant bacteria and methods of making and using the same” (Duke University, priority 2015, dated 2020).

Columns and labels:
[1] = system: Methicillin-Resistant Staphylococcus aureus (MRSA); experiment: microbe, parasite or virus in culture; format: cell-based
Source text: Bacterial culture reagents including LB broth (Lennox), agar-agar, ampicillin, and ceftriaxone were purchased from Sigma Aldrich Corp. The Escherichia coli (E. coli) K12 strain HB101 and pGLO E. coli transformation kit purchased from Bio-Rad Laboratories Inc. HB101 was transformed with the bla gene via the pGLO plasmid. The bla gene encodes for a TEM-1 β-lactamase that imparts penicillin resistance to the mutant E. coli K-12 strain (+Bla). Strains E. coli UTI89, [27] pCOM-GFP-transformed E. coli UTI89 (pCOM-GFP), [28] and Methicillin-Resistant Staphylococcus aureus (MRSA) clone USA300 [29] have been previously described. The Extended-Spectrum β-Lactamase (ESBL) E. coli, Klebsiella pneumonia (Klebs), and Pseudomonas aeruginosa (Pseudo) strains were clinical isolates acquired deidentified from Duke Hospital and tested for antibiotic susceptibility in the Clinical Microbiology Laboratory using standard clinical susceptibility methods.
Cultures were incubated on LB (Lennox, Sigma) agar at 37° C. in ambient atmospheric composition. Before beginning an experiment, a single bacterial colony grown on LB agar was resuspended in 2 mL LB broth and incubated overnight to form a turbid cell suspension. The overnight culture was diluted 1:100 in LB and used immediately as the working culture. To assess the antibacterial activity of compounds, the working bacterial culture was aliquoted in a clear, flat-bottomed, 96-well polystyrene plate (Costar) and the compound of interest was added in 2-fold serial dilution from 500 to 1 μM. Plates were covered with a breathable sealing film (Aeroseal, Genesee Scientific) and incubated at 37° C. in ambient atmospheric composition with shaking at 200 rpm. Optical density at 600 nm was recorded after 4 h and 20 h for each well using a standard OD600 protocol with LB serving as the blank. The resulting dose-response curves were fit to a nonlinear regression in GraphPad Prism Version 6 to calculate the IC50 of DB4-51 in each strain.
The ability of DB4-162 to inhibit bacterial growth was assessed by a traditional broth microdilution method that assesses the turbidity of liquid cultures in the presence of varying concentrations of the compound. As described above for DB4-51, the antibacterial properties of the prochelator DB4-162 were assessed in non-pathogenic lab-strain HB101K-12 E. coli and compared to the pGLO-transfected mutant HB101K-12 E. coli that express β-lactamase. Clinically relevant pathogenic bacteria were also screened, including UTI89 E. coli, pCOM transfected UTI89 E. coli (pCOM), extended spectrum β-lactamase (ESBL) E. coli, methicillin-resistant Staphylococcus aureus (MRSA), and Klebsiella pneumonia (Klebs). In addition to being naturally resistant to many β-lactam antibiotics, MRSA can produce a number of β-lactamases. […] It should be noted that all of the bacteria tested are gram-negative except for gram-positive MRSA.
The goal of this screen was to calculate the IC50 of the prochelator in a series of pathogenic bacteria and compare these values to the IC50 of known antibiotics in those same strains to determine the relative effectiveness of DB4-162 against the drug-resistant and drug-susceptible bacteria in comparison to current antibiotic treatment options. Bacterial growth was monitored in LB broth at 37° C. in the presence and absence of DB4-162 for 20 hours. A concentration gradient of DB4-162 from 500 to 0 μM was used to screen all 7 strains of bacteria and the dose-response curves were fit to a […] to calculate the IC50 of DB4-162 in each strain. These IC50 values are an approximation of how effectively DB4-162 inhibits the growth of each bacterial strain in vitro.
IC50 values for ampicillin were calculated via broth microdilution in LB broth only. Values are listed as the mean followed by the 95% confidence interval about the mean. Mean and confidence intervals were calculated from a variable slope, nonlinear regression fit to the dose-response OD600 data. […]

[2] = Calcein fluorescence assay for Cu competition; format: physicochemical
Procedure: FIG. 11: To solutions of 2 μM calcein in pH 7.4 PBS was added 2.4 μM CuCl2 and the samples were fully equilibrated at room temperature for 2 hours. Next, 20 μM TAT, 20 μM DB4-162, 0.1 units/mL β-lactamase were added and the fluorescence at 500 nm was recorded after one hour.
A calcein fluorescence assay for metal competition was utilized in order to evaluate the relative metal-binding affinity of DB4-51 compared to PT. The fluorescence intensity of the probe calcein is quenched by more than 90% upon binding Cu^2+. […] However, when incubated with 10 equivalents of DB4-51 and 0.1 units/mL Type III β-lactamase from Enterobacter cloacae, there is an 85% return in calcein fluorescence, which correlates well with the 90% return observed for PT itself at the same concentration.
FIG. 4: Relative Cu binding assay with DB4-51 and PT against calcein. Solutions of 2 μM calcein and 2.4 μM CuCl2 in pH 7.4 PBS were equilibrated at room temperature for 2 hours prior to addition of 20 μM PT, 20 μM DB4-51, and/or 0.1 units/mL β-lactamase (Bla).
The calcein assay was utilized in order to assess the relative copper chelating ability of the prochelator and TAT. The fluorescence emission of calcein is quenched by more than 90% in the presence of 1.2 equivalents of CuCl2 (FIG. 11). […] The addition of 0.1 units/mL β-lactamase alone has no effect on the quenched fluorescence signal of the Cu-calcein solution. […] However, when incubated with 10 equivalents of DB4-162 and 0.1 units/mL β-lactamase there is a 90% return in calcein fluorescence. […] While it is unclear why 10 equivalents of TAT are insufficient to out-compete calcein for copper, it may be related to the propensity of TAT to form other species in aqueous media.

[3] = system: +Bla K-12 E. coli; format: cell-based, Escherichia coli; conditions: 1 h, ICP-MS; for increase in cell-associated copper over the CuCl2 control: 10 μM compound + 10 μM supplemental CuCl2; for changes in cell-associated copper, iron, or zinc vs untreated control: 2.5-10 μM compound alone
Procedure: PT is recognized as an ionophore that shuttles metals across cell membranes and thereby disrupts cellular metal homeostasis. […] To test this hypothesis, inductively-coupled plasma mass spectrometry (ICP-MS) was used to measure the concentration of cell-associated copper, iron, and zinc for +Bla K-12 E. coli grown under a variety of conditions. Untreated E. coli grown in LB media were compared to those incubated for one hour in LB containing 0, 2.5, 5, or 10 μM DB4-51 or PT with and without 10 μM supplemental CuCl2. The concentrations of cell-associated metals in +Bla E. coli grown in these conditions are reported as a ratio against bacterial growth as measured by the OD600 reading at the time of sampling.
FIG. 6: Cellular metal concentrations of +Bla K-12 E. coli. Cultures of +Bla K-12 E. coli were incubated for 1 h in LB media, LB containing no treatment, 10 μM added CuCl2, and DB4-51 (top) or PT (bottom) at indicated concentrations in the absence or presence of 10 μM CuCl2. Metal contents of cell pellets were analysed via ICP-MS and reported as a function of OD600.

[4] = 2 μM calcein + 2.4 μM CuCl2, pH 7.4 PBS, 20 μM (10 equivalents) compound alone, 1 h
[5] = as above, 10 equivalents compound + 0.1 units/mL β-lactamase
[6] = Staphylococcus aureus, LB + 500 μM BCS

Row | SMILES | IC50 ([1]; LB broth) [nM] | return in calcein fluorescence [2, 4] | return in calcein fluorescence [2, 5] [%] | change in IC50 value as a function of Cu availability ([1]; Cu-replete vs Cu-limited) [fold] | increase in cell-associated copper over the CuCl2 control [3] | changes in cell-associated copper, iron, or zinc vs untreated control [3] | IC50 ([1]; Staphylococcus aureus, LB + 10 μM CuCl2) [nM] | IC50 [1, 6] [nM] | IC50 ([1]; Staphylococcus aureus, LB broth) [nM]
1 | CC1(C)S[C@@H]2[C@H](NC(=O)[C@H](N)c3ccccc3)C(=O)N2[C@H]1C(=O)O [Ampicillin] | > 250000 |  |  |  |  |  |  |  | 
2 | O=C(Cc1ccccc1)N[C@@H]1C(=O)N2C(C(=O)O)=C(CSc3cccc[n+]3[O-])CS[C@H]12 [DB4-51, 2-((((6R,7R)-2-carboxy-8-oxo-7-(2-phenylacetamido)-5-thia-1-azabicyclo[4.2.0]oct-2-en-3-yl)methyl)thio)pyridine 1-oxide] |  | does not compete with calcein for Cu binding | 85 | 55 | slight but statistically insignificant increase | no significant changes |  |  | 
3 | Cc1csc(=S)n1OCC1=C(C(=O)O)N2C(=O)[C@@H](NC(=O)Cc3ccccc3)[C@H]2SC1 [DB4-162, (6R,7R)-3-(((4-methyl-2-thioxothiazol-3(2H)-yl)oxy)methyl)-8-oxo-7-(2-phenylacetamido)-5-thia-1-azabicyclo[4.2.0]oct-2-ene-2-carboxylic acid] |  | approximately 50% | 90 |  |  |  | 2700 | 2400 | 2400
4 | [O-][n+]1ccccc1S [PT, 2-mercaptopyridine N-oxide] |  | 90% |  |  | 30 fold | no significant changes |  | 11 | 
